What follows are compounds tested against T1, H3 receptors of the brain of the rat (Rattus norvegicus, UniProt Q9QYN8) (assay: Antagonism of the inhibition by exogenous histamine of release in rat cerebral cortex sections (central H3 receptors)). Settings: not given.
T1 construct: This method requires rat cerebral cortex sections; from tissue; host or cells: rat cerebral cortex sections
Format: cell-based
Excerpt: This method requires rat cerebral cortex sections and has made possible the pharmacological characterization of the H3 receptors (Nature, 1987, 327, 117-123).

T1 sequence (Q9QYN8 whole entry): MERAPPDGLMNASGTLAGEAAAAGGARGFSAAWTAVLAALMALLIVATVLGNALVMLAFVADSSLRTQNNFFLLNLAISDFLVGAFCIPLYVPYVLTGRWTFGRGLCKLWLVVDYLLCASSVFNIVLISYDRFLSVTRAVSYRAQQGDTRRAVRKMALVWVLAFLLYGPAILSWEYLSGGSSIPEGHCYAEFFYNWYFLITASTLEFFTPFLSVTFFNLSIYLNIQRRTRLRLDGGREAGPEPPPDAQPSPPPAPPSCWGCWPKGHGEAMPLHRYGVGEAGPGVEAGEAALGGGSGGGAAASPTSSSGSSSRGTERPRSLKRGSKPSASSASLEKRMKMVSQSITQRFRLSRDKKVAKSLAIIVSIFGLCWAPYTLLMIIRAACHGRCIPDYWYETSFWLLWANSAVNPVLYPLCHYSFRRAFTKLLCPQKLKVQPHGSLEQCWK

SMILES	Ki [nM]
CC(CC(=O)NCCCc1c[nH]cn1)c1ccccc1 (racemic) [Example 15, (R,S)-(+)-N-(3-(1H-Imidazol-4-yl)propyl)-3-phenylbutanamide]	35
O=C(CCc1ccccc1)NCCCc1c[nH]cn1 [Example 2, N-(3-(1H-Imidazol-4-yl)propyl)-3-phenylpropanamide]	49
O=C(CCCC1CCCCC1)NCCCc1c[nH]cn1 [Example 7, N-(3-(1H-Imidazol-4-yl)propyl)-4-cyclohexylbutanamide]	59
O=C(CCC1CCCC1)NC/C=C/c1c[nH]cn1 [Example 19, (E)-N-(3-(1H-Imidazol-4-yl)allyl)-3-cyclopentylpropanamide]	42
S=C(CCC1CCCC1)NCCCc1c[nH]cn1 [Example 22, N-(3-(1H-Imidazol-4-yl)propyl)-3-cyclopentylpropanethioamide]	11
O=C(CCC1CCCC1)OCCCc1c[nH]cn1 [Example 24, 3-(1H-Imidazol-4-yl)propyl ester of 3-cyclopentylpropanoic acid]	3
Brc1ccc(CCCOCCCc2c[nH]cn2)cc1 [Example 38, 3-(4-Bromophenyl)propyl 3-(1H-imidazol-4-yl)propyl ether]	15 ± 4
c1ccc(CCCOCCCc2c[nH]cn2)cc1 [Example 45, 3-Phenylpropyl 3-(1H-imidazol-4-yl)propyl ether]	17 ± 3
O=C(CCCc1ccccc1)CCCc1c[nH]cn1 [Example 49, 1-(1H-Imidazol-4-yl)-7-phenylheptan-4-one]	20
N#CN=C(NCCCc1cnc[nH]1)NCC1CCCCC1 [Example 51, N-Cyano-N'-[3-(1H-imidazol-4-yl)propyl]-N"-cyclohexylmethylguanidine]	20
Clc1ccc(CCCOCCCc2c[nH]cn2)cc1 [Example 85, 3-(4-Chlorophenyl)propyl 3-(1H-imidazol-4-yl)propyl ether]	13 ± 4
Fc1ccc(CCCOCCCc2c[nH]cn2)cc1 [Example 88, 3-(4-Fluorophenyl)propyl 3-(1H-imidazol-4-yl)propyl ether]	7 ± 2

Next, values leading:

Ki [nM]	SMILES
18	Clc1ccc(COCCCc2c[nH]cn2)cc1 [Example 86, (4-Chlorophenyl)methyl 3-(1H-imidazol-4-yl)propyl ether]
380	c1ccc2sc(NCCc3c[nH]cn3)nc2c1 [Example 91, 2-{[2-(1H-Imidazol-4-yl)ethyl]amino}benzothiazole]
38	O=[N+]([O-])c1ccc(NCCc2c[nH]cn2)nc1 [Example 94, 2-{[2-(1H-Imidazol-4-yl)ethyl]amino}-5-nitropyridine]

Same assay, conditions: read-out: Apparent dissociation constant (Ki) as antagonist of histamine on the H3 receptors of the brain of the rat; rat cerebral cortex sections; exogenous histamine 1 μM; Ki calculated from IC50 according to Cheng and Prusoff

SMILES	Ki [nM]
c1nc(CCCOCCCC2CCCCC2)c[nH]1 [Example 36, 3-Cyclohexylpropyl 3-(1H-imidazol-4-yl)propyl ether]	20 ± 8
O=C(NC(=O)c1ccccc1)OCCCc1c[nH]cn1 [Example 55, 3-(1H-Imidazol-4-yl)propyl N-benzoylcarbamate]	95
O=C(NCC1CC1)OCCCc1c[nH]cn1 [Example 57, 3-(1H-Imidazol-4-yl)propyl N-(cyclopropylmethyl)carbamate]	52
O=C(Nc1ccccc1)OCCCc1c[nH]cn1 [Example 61, 3-(1H-Imidazol-4-yl)propyl N-phenylcarbamate]	14 ± 8
O=C(Nc1ccc(F)cc1)OCCCc1c[nH]cn1 [Example 73, 3-(1H-Imidazol-4-yl)propyl N-(4-fluorophenyl)carbamate]	24 ± 4
CN(Cc1ccccc1)C(=O)OCCCc1c[nH]cn1 [Example 83, 3-(1H-Imidazol-4-yl)propyl N-benzyl-N-methylcarbamate]	42

Now from value to compound:

Ki [nM]	SMILES
15	O=C(NCc1ccc([N+](=O)[O-])cc1)OCCCc1c[nH]cn1 [Example 67, 3-(1H-Imidazol-4-yl)propyl N-(4-nitrobenzyl)carbamate]
4.8 ± 0.9	O=[N+]([O-])c1ccc(SCCc2c[nH]cn2)nc1 [Example 107, 2-{2-[1H-Imidazol-4-yl]ethylthio}-5-nitropyridine]
35 ± 6	O=[N+]([O-])c1ccc(OCCc2c[nH]cn2)cc1 [Example 110, 4-[2-(4-Nitrophenoxy)ethyl]-1H-imidazole]
9 ± 5	N#Cc1ccc(OCCc2c[nH]cn2)cc1 [Example 112, 4-[2-(4-Cyanophenoxy)ethyl]-1H-imidazole]
19 ± 9	CCCc1ccc(OCCc2c[nH]cn2)cc1 [Example 117, 4-[2-(4-Propylphenoxy)ethyl]-1H-imidazole]
90 ± 27	c1ccc2cc(OCCc3c[nH]cn3)ccc2c1 [Example 125, 4-[2-(2-Naphthyloxy)ethyl]-1H-imidazole]
12 ± 3	N#Cc1ccc(OCCCc2c[nH]cn2)cc1 [Example 130, 4-[3-(4-Cyanophenoxy)propyl]-1H-imidazole]
14 ± 6	FC(F)(F)c1ccc(OCCCc2c[nH]cn2)cc1 [Example 131, 4-[3-(4-Trifluoromethylphenoxy)propyl]-1H-imidazole]

Same assay, conditions: read-out: Inhibition of release by exogenous histamine

SMILES	inhibition at 1 µM [%]
NCCc1c[nH]cn1 [histamine, reference compound]	~50

Source: patent publication US5559113A, “Imidazole compounds and their therapeutic applications” (Institut National de la Sante et de la Recherche Medicale, priority 1992, dated 1996)
